# Laboratory results as given in US4927837A, “Derivatives of 3-piperidine carbaldehyde oxime and their use as medicaments” (Roussel Uclaf, priority 1987, dated 1990).
# Like-named read-outs stand apart in the source and are kept apart here.
# What was measured:
# [1] = Variation in body temperature (duration of action); assay type: in vivo, mice
# Method: (§1) The test is carried out on male mice (CD1 Charles Rivers) weighing 25 to 30 g, which have gone without food for 6 hours.
# The body temperature is noted using a thermocouple placed about 1.5 cm inside the rectum, and connected to an electric temperature recorder. […]
# The duration of action of the products is determined using doses capable of reducing the temperature by 1° to 1.5° C.
# in vivo = settings: mouse, male mice, oral route, mortality noted for 7 days
# Method: The test is carried out on male mice (CD1 Charles Rivers) of 22 to 24 g, which have gone without food for 16 hours.
# [2] = system: isolated ileum of guinea pigs; experiment: Test on the isolated ileum of guinea pigs (agonistic activity); settings: Cavia porcellus; isolated guinea pig ileum, contraction, Tyrode's solution, 37° C.; read-out: pD2 (negative logarithm of the dose which produces 50% of the maximum effect) (converted)
# Method: Fragments of the ileum of guinea pigs killed by decapitation are removed. The isolated ileum is placed in 10 cm^3 of Tyrode's solution at 37° C. and aerated by a mixture of oxygen (95%) and carbon dioxide gas (5%). The contractions due to the products are recorded with a detector linked to a polygraph. The products under test are added at concentrations between 1.10^-4 M and 1.10^-8 M/1.
# The products showing a contracting effect are tested vis a vis atropine and hexamethonium in order to establish whether the activity is of "muscarine" or "nicotine" type.
# The possible antagonistic activity of the products is tested vis a vis acetylcholine.
# The agonistic activity is expressed in pD2 (negative logarithm of the dose which produces 50% of the maximum effect.)
# [3] = Diarrheic activity in mice, oral route; settings: mouse, in vivo, male mice, read-out: DE50 (dose which causes diarrhea in 50% of the animals)
# Method: The test is carried out on male mice (CD1 Charles Rivers) weighing 25 to 30 g, which have gone without food for 6 hours. The product, dissolved at 5% in methocel, is administered by oral route, using a probang.
# The control animals receive only the excipient.
# After treatment, the animals are put separately into cages, the bottoms of which are covered with blotting paper, and are put under observation for 30, 60, 120 and 180 minutes.
# The absorbent sheets of paper are changed after each observation.
# The consistency of the faeces is evaluated according to the Randall and Baruth method (Arch. Int. Pharmacodyn. 220, 94, 1976), according to the scale of the following values:
# 1: slightly moist faeces with or without halo of humidity,
# 2: slightly moist faeces with presence of well-defined circle of humidity,
# 3: moist faeces with presence of a large circle of humidity,
# 4: faeces without consistency with presence of a very large circle of humidity.
# For each product, the dose which causes diarrhea in 50% of the animals is noted according to the method of Miller and Tainter (Proc. Soc. Exp. Biol. Med., 57, 261, 1944).
# [4] = Hypothermic activity in mice; assay type: in vivo; settings: Mus musculus, male mice, read-out: Effective dose (-1° C.)
# Method: as §1
# The body temperature is noted using a thermocouple placed about 1.5 cm inside the rectum, and connected to an electric temperature recorder.
# The products are administered by oral or subcutaneous route and the temperatures are noted at instant 0 and at 30 minutes, 1 hour, 2 hours and 21/2 hours after treatment.
# The degree of hypothermia is evaluated as the difference between the treated animals and the control animals, and the dose necessary for reducing the body temperature by 1° C. is determined.
# [5] = system: patients who have a memory deficiency; settings: intravenous route; cited from earlier work
# [6] = system: central cholinergic system; settings: cited from earlier work
# [7] = 2 mg/kg, sc, 30 min, **p < 0.01
# [8] = 2 mg/kg, sc, 60 min, **p < 0.01
structure (smiles),measurement,setting,value
"C#CCON=CC1CCCNC1 (stereo not drawn) [Example 6, 3-piperidine carbaldehyde O-(2-propynyl) oxime]",Variation in body temperature,"[1]; 12.5 mg/kg, os, 0 min",+0.1 °C
same,Variation in body temperature,"[1]; 12.5 mg/kg, os, 30 min, **p < 0.01",-1.2 °C
same,Variation in body temperature,"[1]; 12.5 mg/kg, os, 60 min, **p < 0.01",-1.4 °C
same,Variation in body temperature,"[1]; 12.5 mg/kg, os, 120 min",-0.1 °C
same,Variation in body temperature,"[1]; 12.5 mg/kg, os, 180 min",+0.1 °C
same,Variation in body temperature,"[1]; 12.5 mg/kg, sc, 0 min",-0.1 °C
same,Variation in body temperature,"[1]; 12.5 mg/kg, sc, 30 min, **p < 0.01",-1.6 °C
same,Variation in body temperature,"[1]; 12.5 mg/kg, sc, 60 min, **p < 0.01",-1.5 °C
same,Variation in body temperature,"[1]; 12.5 mg/kg, sc, 120 min",-0.2 °C
same,Variation in body temperature,"[1]; 12.5 mg/kg, sc, 180 min",+0.1 °C
same,LD50 at 168 h,in vivo,100 mg/kg
same,EC50,[2],4.47 µM
same,ED50,[3],12 mg/kg
same,ED (-1 C),[4]; O. R. (oral route),7 mg/kg
same,ED (-1 C),[4]; SC. R. (subcutaneous route),7 mg/kg
"COC(=O)C1=CCCN(C)C1 [Arecoline, reference compound]",effect on patients who have a memory deficiency,[5],positive effect
same,period of action,[6]; in vivo,short-lasting period of action
same,activity by oral route,[6]; oral route,very weak activity by oral route
same,EC50,[2],0.126 µM
same,ED50,[3],35 mg/kg
same,ED (-1 C),[4]; O. R. (oral route),194 mg/kg
same,ED (-1 C),[4]; SC. R. (subcutaneous route),3 mg/kg
"CON=CC1CCCN(OC(=O)c2ccccc2)C1 (stereo not drawn) [Example 7, 1-benzoyloxy-3-piperidine carbaldehyde (O-methyloxime)]",Variation in body temperature,"[1]; 5 mg/kg, os, 0 min",+0.1 °C
same,Variation in body temperature,"[1]; 5 mg/kg, os, 30 min, **p < 0.01",-1.2 °C
same,Variation in body temperature,"[1]; 5 mg/kg, os, 60 min, **p < 0.01",-1.0 °C
same,Variation in body temperature,"[1]; 5 mg/kg, os, 120 min",+0.1 °C
same,Variation in body temperature,"[1]; 5 mg/kg, os, 180 min",+0.1 °C
same,Variation in body temperature,"[1]; 5 mg/kg, sc, 0 min",+0.1 °C
same,Variation in body temperature,"[1]; 5 mg/kg, sc, 30 min, **p < 0.01",-1.2 °C
same,Variation in body temperature,"[1]; 5 mg/kg, sc, 60 min, **p < 0.01",-1.1 °C
same,Variation in body temperature,"[1]; 5 mg/kg, sc, 180 min",+0.1 °C
same,LD50 at 168 h,in vivo,> 500 mg/kg
same,EC50,[2],> 100 µM
same,ED50,[3],10 mg/kg
same,ED (-1 C),[4]; O. R. (oral route),4 mg/kg
same,ED (-1 C),[4]; SC. R. (subcutaneous route),4 mg/kg
"COC(=O)C1=CCCN(C)C1 [Arecoline, HBr, reference compound]",Variation in body temperature,"[1]; 3.5 mg/kg, sc, 0 min",-0.1 °C
same,Variation in body temperature,"[1]; 3.5 mg/kg, sc, 30 min, **p < 0.01",-1.5 °C
same,Variation in body temperature,"[1]; 3.5 mg/kg, sc, 60 min",-0.1 °C
same,Variation in body temperature,"[1]; 3.5 mg/kg, sc, 120 min",+0.2 °C
same,Variation in body temperature,"[1]; 3.5 mg/kg, sc, 180 min",+0.2 °C
"CON=CC1CCCN(O)C1 (stereo not drawn) [Example 8, 1-hydroxy-3-piperidine carbaldehyde (O-methyloxime)]",Variation in body temperature,"[1]; 2 mg/kg, sc, 0 min",+0.1 °C
same,Variation in body temperature,[1]; [7],-1.2 °C
same,Variation in body temperature,[1]; [8],-1.0 °C
same,Variation in body temperature,"[1]; 2.5 mg/kg, os, 0 min",+0.1 °C
same,Variation in body temperature,"[1]; 2.5 mg/kg, os, 30 min, **p < 0.01",-1.2 °C
same,Variation in body temperature,"[1]; 2.5 mg/kg, os, 60 min, **p < 0.01",-1.0 °C
same,Variation in body temperature,"[1]; 2.5 mg/kg, os, 180 min",+0.2 °C
same,LD50 at 168 h,in vivo,200 mg/kg
same,EC50,[2],11.2 µM
same,ED50,[3],4 mg/kg
same,ED (-1 C),[4]; O. R. (oral route),2 mg/kg
same,ED (-1 C),[4]; SC. R. (subcutaneous route),1.6 mg/kg
"CON=CC1CCCNC1 (stereo not drawn) [Example 2, 3-piperidine carbaldehyde O-methyloxime]",Variation in body temperature,"[1]; 2 mg/kg, os, 0 min",+0.1 °C
same,Variation in body temperature,"[1]; 2 mg/kg, os, 30 min, **p < 0.01",-1.7 °C
same,Variation in body temperature,"[1]; 2 mg/kg, os, 60 min, **p < 0.01",-1.4 °C
same,Variation in body temperature,"[1]; 2 mg/kg, os, 120 min",+0.1 °C
same,Variation in body temperature,"[1]; 2 mg/kg, os, 180 min",+0.1 °C
same,Variation in body temperature,[1]; [7],-1.7 °C
same,Variation in body temperature,[1]; [8],-1.5 °C
same,Variation in body temperature,"[1]; 2 mg/kg, sc, 180 min",+0.1 °C
same,LD50 at 168 h,in vivo,125 mg/kg
same,EC50,[2],0.891 µM
same,ED50,[3],3 mg/kg
same,ED (-1 C),[4]; O. R. (oral route),1.2 mg/kg
same,ED (-1 C),[4]; SC. R. (subcutaneous route),1.2 mg/kg
